45 molecules from the Biogen ADME set (Fang et al. 2023) can be followed below.

The conditions of this data set: for aqueous solubility: pH 6.8.

Values after ≈ are worked out from the molar mass of the structure shown.

With `O=c1c2oc3ccccc3c2ncn1Cc1ccc(F)c(F)c1`, the MDR1-MDCK efflux ratio stood at 0.537; the intrinsic clearance, human liver microsomes amounted to 81.2 mL/min/kg; the intrinsic clearance, rat liver microsomes was 788 mL/min/kg.

Broadly, the aqueous solubility is how much of the substance goes into solution per volume. As to `CC(C)(C)C(=O)N1CCC(NS(C)(=O)=O)CC1`, the MDR1-MDCK efflux ratio was 1.89; the intrinsic clearance, human liver microsomes was at most 4.74 mL/min/kg; the intrinsic clearance, rat liver microsomes was at most 10.7 mL/min/kg; the aqueous solubility stood at 56.9 µg/mL (≈ 217 µM).

As to `N#Cc1ccc2[nH]c(O)c(-c3ccc(CN4CCOCC4)cn3)c2c1`, the MDR1-MDCK efflux ratio was determined as 26; the fraction unbound, rat plasma turned out to be 0.118; the intrinsic clearance, human liver microsomes was found to be 11.2 mL/min/kg; the intrinsic clearance, rat liver microsomes came out at 70.8 mL/min/kg. The same molecule gave an aqueous solubility of 25.9 µg/mL (≈ 77.6 µM).

Regarding `CCS(=O)(=O)N1CCN(c2ccc(Nc3ncc(C(N)=O)c(NC4CC4)n3)cc2)CC1`, the MDR1-MDCK efflux ratio amounted to 39.4; the intrinsic clearance, human liver microsomes stood at 9.73 mL/min/kg; the intrinsic clearance, rat liver microsomes stood at 36.3 mL/min/kg.

Turning to `NC(=O)COc1ncnc2ccccc12`, the MDR1-MDCK efflux ratio is 1.27; the intrinsic clearance, human liver microsomes is at most 4.74 mL/min/kg; the intrinsic clearance, rat liver microsomes was at most 10.7 mL/min/kg; the aqueous solubility worked out at 47.9 µg/mL (≈ 235 µM).

Regarding `CC(C)c1noc(-c2ccc(N(C)Cc3cccnc3)nc2)n1`, the MDR1-MDCK efflux ratio came to 0.511; the intrinsic clearance, human liver microsomes was 45.6 mL/min/kg; the intrinsic clearance, rat liver microsomes worked out at 459 mL/min/kg; the aqueous solubility stood at 36.6 µg/mL (≈ 118 µM).

Turning to `Cc1cc(C)c(NC(=O)c2cc(Cl)ccc2F)c(C)n1`, the MDR1-MDCK efflux ratio was 0.756; the intrinsic clearance, human liver microsomes came to 8.2 mL/min/kg; the intrinsic clearance, rat liver microsomes was determined as 40 mL/min/kg; the aqueous solubility was found to be 62.8 µg/mL (≈ 215 µM).

As for `Cc1nccc(-c2ccc(-c3noc(CN4CCOCC4)n3)cc2)n1`, the MDR1-MDCK efflux ratio amounted to 0.677; the intrinsic clearance, human liver microsomes was at most 4.74 mL/min/kg; the intrinsic clearance, rat liver microsomes worked out at 106 mL/min/kg; the aqueous solubility is 61 µg/mL (≈ 181 µM).

In the case of `CC(C(=O)Nc1ccccc1)N1CCCN(c2nccs2)CC1` (centres undefined), the MDR1-MDCK efflux ratio stood at 0.926; the intrinsic clearance, human liver microsomes was 460 mL/min/kg; the intrinsic clearance, rat liver microsomes turned out to be 2020 mL/min/kg; the aqueous solubility came to 37.1 µg/mL (≈ 112 µM).

On to `CCCNC(=O)C1(Cc2ccccn2)CCOCC1`, for which the MDR1-MDCK efflux ratio is 10.9; the intrinsic clearance, human liver microsomes was at most 4.74 mL/min/kg; the intrinsic clearance, rat liver microsomes was at most 10.7 mL/min/kg; the aqueous solubility came to 85.3 µg/mL (≈ 325 µM).

Consider `Cc1c(F)cccc1NC(=O)CN1[C@H](Cc2ccccc2)C[C@]2(C)NC(=O)CCC[C@H]12`, for which the MDR1-MDCK efflux ratio was determined as 12.4; the fraction unbound, human plasma was found to be 0.0394; the fraction unbound, rat plasma stood at 0.0842; the intrinsic clearance, human liver microsomes worked out at 267 mL/min/kg. This molecule also had an intrinsic clearance, rat liver microsomes of 1090 mL/min/kg.

As for `CCOc1ccc(OCCN2CCN(C(C)=O)CC2)cc1`, the MDR1-MDCK efflux ratio stood at 0.671; the intrinsic clearance, human liver microsomes was at most 4.74 mL/min/kg; the intrinsic clearance, rat liver microsomes is 17.5 mL/min/kg.

For the molecule `Cc1nc(O)c(Cl)c(N(C)CC2CCN(C)CC2)n1`, the MDR1-MDCK efflux ratio came out at 7.64; the intrinsic clearance, human liver microsomes was at most 4.74 mL/min/kg; the intrinsic clearance, rat liver microsomes is at most 10.7 mL/min/kg.

For the molecule `O=C(CSC1CCCC1)N1CCC(Cn2cccn2)CC1`, the MDR1-MDCK efflux ratio was 1.6; the intrinsic clearance, human liver microsomes stood at 74.6 mL/min/kg; the intrinsic clearance, rat liver microsomes came out at 747 mL/min/kg; the aqueous solubility came to 63.3 µg/mL (≈ 206 µM).

In the case of `CN[C@@H](C)C(=O)N[C@H](C(=O)N1CCC[C@H]1C(=O)Nc1snnc1-c1ccccc1)C1CCCCC1`, the MDR1-MDCK efflux ratio was determined as 47.8.

Molecule `CCCS(=O)(=O)Nc1ccc(F)c(C(=O)c2c[nH]c3ncc(Cl)cc23)c1F` registered an intrinsic clearance, human liver microsomes of 7.61 mL/min/kg and an intrinsic clearance, rat liver microsomes of 22.2 mL/min/kg.

On to `COc1cc([C@@H]2c3cc4c(cc3[C@H](O)[C@H]3COC(=O)[C@@H]23)OCO4)cc(OC)c1OC`, for which the MDR1-MDCK efflux ratio came out at 0.444; the intrinsic clearance, human liver microsomes turned out to be 44.5 mL/min/kg; the intrinsic clearance, rat liver microsomes was 5860 mL/min/kg.

Take `C[C@@]1(c2ncncc2F)NC(=O)c2cc(-c3cn[nH]c3)ccc21`: the MDR1-MDCK efflux ratio worked out at 21.8; the intrinsic clearance, human liver microsomes was at most 4.74 mL/min/kg; the intrinsic clearance, rat liver microsomes amounted to 34.9 mL/min/kg; the aqueous solubility came out at 37.5 µg/mL (≈ 121 µM).

In the case of `COC(=O)c1cccc2c1CCCN2C(=O)c1ccc(F)cc1F`, the MDR1-MDCK efflux ratio was 0.708; the intrinsic clearance, human liver microsomes worked out at 1150 mL/min/kg; the intrinsic clearance, rat liver microsomes came to 2000 mL/min/kg.

`CCC(C)(C)c1ccc(Oc2ccc(NC(=O)Nc3ccccc3OC)cc2)cc1` showed an aqueous solubility of 0.43 µg/mL (≈ 1.06 µM).

On to `CCN1CCCN(C(=O)Nc2ccc(COC3CCCC3)cc2)CC1`, for which the MDR1-MDCK efflux ratio is 9.16; the intrinsic clearance, human liver microsomes worked out at 6.32 mL/min/kg; the intrinsic clearance, rat liver microsomes turned out to be 287 mL/min/kg.

As for `O=C(NCCN1CCC(c2ccccc2)CC1)c1ccc2ncsc2c1`, the MDR1-MDCK efflux ratio is 1.31; the intrinsic clearance, human liver microsomes came out at 15.2 mL/min/kg; the intrinsic clearance, rat liver microsomes was determined as 108 mL/min/kg; the aqueous solubility was 44 µg/mL (≈ 120 µM).

Turning to `Cc1nccc(NC(=O)CCc2ccncc2)c1Cl`, the MDR1-MDCK efflux ratio is 0.826; the intrinsic clearance, human liver microsomes is at most 4.74 mL/min/kg; the intrinsic clearance, rat liver microsomes is 73.1 mL/min/kg.

With `N#Cc1cnc2cc(F)cc(F)c2c1NC1CCN(CC(N)=O)CC1`, the MDR1-MDCK efflux ratio was determined as 15; the intrinsic clearance, human liver microsomes is at most 4.74 mL/min/kg; the intrinsic clearance, rat liver microsomes was found to be 27.4 mL/min/kg.

For the molecule `CN(Cc1nc2c(s1)CCCC2)c1cnccn1`, the MDR1-MDCK efflux ratio amounted to 0.576; the intrinsic clearance, human liver microsomes is 131 mL/min/kg; the intrinsic clearance, rat liver microsomes turned out to be 1280 mL/min/kg.

As for `C#C[C@@](C)(CC)NC(=O)c1cc(F)cnc1NC1CC(F)(F)C1`, the MDR1-MDCK efflux ratio is 0.802; the fraction unbound, human plasma is 0.0469; the fraction unbound, rat plasma was determined as 0.0708; the intrinsic clearance, human liver microsomes is 69.6 mL/min/kg. The intrinsic clearance, rat liver microsomes worked out at 313 mL/min/kg.

In the case of `CCNC(=O)c1cc(C2CC2)nc2c1c(C)nn2-c1ccccn1`, the MDR1-MDCK efflux ratio was 3.78; the intrinsic clearance, human liver microsomes is 25.8 mL/min/kg; the intrinsic clearance, rat liver microsomes is 70.7 mL/min/kg; the aqueous solubility is 54.1 µg/mL (≈ 168 µM).

`COc1cccc(CC(=O)Nc2ccc3nc(C)sc3c2)c1`: the MDR1-MDCK efflux ratio was 0.818; the intrinsic clearance, human liver microsomes came out at 33.7 mL/min/kg; the intrinsic clearance, rat liver microsomes came to 342 mL/min/kg; the aqueous solubility was determined as 52.3 µg/mL (≈ 168 µM).

`Fc1cccc(CN2CCN(c3ncccn3)CC2)c1`: the MDR1-MDCK efflux ratio amounted to 0.527; the intrinsic clearance, human liver microsomes came to 111 mL/min/kg; the intrinsic clearance, rat liver microsomes came to 1120 mL/min/kg; the aqueous solubility is 38 µg/mL (≈ 140 µM).

For `CN(C)C(=O)C1(Cc2ccccc2-c2cccc(F)c2)CCN(C(=O)C2CC=CCC2)CC1` (centres undefined), the MDR1-MDCK efflux ratio was determined as 1.46; the fraction unbound, human plasma was determined as 0.00787; the fraction unbound, rat plasma was determined as 0.0139; the intrinsic clearance, human liver microsomes turned out to be 997 mL/min/kg. The molecule also showed an intrinsic clearance, rat liver microsomes of 2710 mL/min/kg.

`O=C(NCCc1cn2c(n1)CCCC2)c1ccccn1`: the MDR1-MDCK efflux ratio stood at 12.2; the intrinsic clearance, human liver microsomes was at most 4.74 mL/min/kg; the intrinsic clearance, rat liver microsomes stood at 26.7 mL/min/kg; the aqueous solubility came out at 47.6 µg/mL (≈ 176 µM).

As for `Cc1cc(C)nc(NCc2cnc(C)c(C)c2)n1`, the MDR1-MDCK efflux ratio was determined as 0.622; the intrinsic clearance, human liver microsomes was 12.5 mL/min/kg; the intrinsic clearance, rat liver microsomes is 162 mL/min/kg; the aqueous solubility came out at 13.3 µg/mL (≈ 54.9 µM).

With `CNc1nc(Nc2cnn([C@H]3CCN(C4COC4)C[C@@H]3F)c2Cl)ncc1C(F)(F)F`, the MDR1-MDCK efflux ratio is 1.31; the intrinsic clearance, human liver microsomes was 10.6 mL/min/kg; the intrinsic clearance, rat liver microsomes was found to be 60.9 mL/min/kg.

In turn, `CCOc1ccccc1NC(=O)C(=O)NCc1ccccc1F` had an aqueous solubility of 0.34 µg/mL (≈ 1.07 µM).

Consider `COc1cccc(N2CCN(c3nc(C)cc(C)c3C#N)CC2)c1`, for which the MDR1-MDCK efflux ratio turned out to be 0.519 and the aqueous solubility amounted to 0.9 µg/mL (≈ 2.79 µM).

As for `CN(CCc1ccccc1)C(=O)CC#N`, the MDR1-MDCK efflux ratio came out at 0.666; the intrinsic clearance, human liver microsomes was at most 4.74 mL/min/kg; the intrinsic clearance, rat liver microsomes was at most 10.7 mL/min/kg; the aqueous solubility was found to be 32.5 µg/mL (≈ 161 µM).

Molecule `Cc1cc(C)nc(NS(=O)(=O)c2ccc(NC(=O)/C=C/c3ccc([N+](=O)[O-])s3)cc2)n1` returned an intrinsic clearance, human liver microsomes of 14 mL/min/kg and an intrinsic clearance, rat liver microsomes of 57.3 mL/min/kg.

For `COc1ncc(C(=O)NCc2cnn3cccnc23)cn1`, the MDR1-MDCK efflux ratio was 2.54; the intrinsic clearance, human liver microsomes is at most 4.74 mL/min/kg; the intrinsic clearance, rat liver microsomes is at most 10.7 mL/min/kg.

In the case of `OC[C@H](Nc1cncc(-c2ccc3[nH]ncc3n2)c1)c1ccccc1`, the MDR1-MDCK efflux ratio came to 25; the fraction unbound, human plasma came out at 0.104; the fraction unbound, rat plasma stood at 0.106; the intrinsic clearance, human liver microsomes is 9.8 mL/min/kg. This molecule yielded an intrinsic clearance, rat liver microsomes of 330 mL/min/kg and an aqueous solubility of 32.7 µg/mL (≈ 98.6 µM).

In the case of `Cc1noc(C)c1CS(=O)(=O)Cc1cccc2c1OCCO2`, the MDR1-MDCK efflux ratio is 2.46; the intrinsic clearance, human liver microsomes was 39.8 mL/min/kg; the intrinsic clearance, rat liver microsomes was 2290 mL/min/kg; the aqueous solubility worked out at 53.3 µg/mL (≈ 165 µM).

On to `O=C(CC1CCCC1)NCc1nnc2n1CCC2`, for which the MDR1-MDCK efflux ratio stood at 51.7; the intrinsic clearance, human liver microsomes is at most 4.74 mL/min/kg; the intrinsic clearance, rat liver microsomes was at most 10.7 mL/min/kg; the aqueous solubility was found to be 31.5 µg/mL (≈ 127 µM).

Consider `CNC(=O)c1ccc(N2CCCc3cc(OC)ccc3C2)nn1`, for which the MDR1-MDCK efflux ratio was found to be 0.886; the intrinsic clearance, human liver microsomes came to 11.8 mL/min/kg; the intrinsic clearance, rat liver microsomes turned out to be 860 mL/min/kg.

With `Fc1ccc(-n2cc(/C=C/c3ccnnc3)nn2)cc1Cl`, the MDR1-MDCK efflux ratio came to 0.642 and the aqueous solubility was 0.27 µg/mL (≈ 0.895 µM).

As for `O=C(Nc1ccc(COC2CCCC2)cc1)N1CCC(CO)CC1`, the MDR1-MDCK efflux ratio turned out to be 5.55; the intrinsic clearance, human liver microsomes was at most 4.74 mL/min/kg; the intrinsic clearance, rat liver microsomes was 329 mL/min/kg.

The molecule `Cc1nc(-c2ccccc2)ccc1C(=O)NC1CCCC1` had an intrinsic clearance, human liver microsomes of at most 4.74 mL/min/kg; an intrinsic clearance, rat liver microsomes of 319 mL/min/kg; an aqueous solubility of 41 µg/mL (≈ 146 µM).
